Laboratory results taken from publication PMC8297771 (PLoS Pathogens, 2021).
Where two headings read alike, the source gives them in different places.

Legend:
[1] = system: Ral-resistant (4736_2) clinical isolate; assay: In vitro anti-viral assay in human PBMCs (RT activity readout); assay type: cell-based, HIV-1
Experimental: (§1) For the assay with human PBMCs, PHA stimulated cells from at least two pooled healthy were infected with HIV-1 strains in 96-well plates. Test drug dilutions, which were prepared at a 2X concentration in microtiter tubes and 100 μL of each concentration (nine total concentrations), were placed in appropriate wells using the standard format. 50 μL of a predetermined dilution of virus stock was placed in each test well (final MOI ≅ 0.1). The PBMC cultures were maintained for 7 days following infection at 37 °C, 5% CO2. After this period, cell-free supernatant samples were collected for analysis of reverse transcriptase (RT) activity. All assays were conducted in triplicates. For RT assay, a microtiter plate-based reverse transcriptase (RT) reaction was utilized (Buckheit et al., AIDS Research and Human Retroviruses 7:295–302, 1991). Tritiated thymidine triphosphate (^3H-TTP, 80 Ci/mmol, NEN) is received in 1:1 dH2O: Ethanol at 1 mCi/mL. Poly rA:oligo dT template:primer (GE Healthcare) was prepared as a stock solution by combining 150 μL poly rA (20 mg/mL) with 0.5 mL oligo dT (20 units/mL) and 5.35 mL sterile dH2O followed by aliquoting (1.0 mL) and storage at—20°C. The RT reaction buffer was prepared fresh on a daily basis and consisted of 125 μL 1.0 M EGTA, 125 μL dH2O, 125 μL 20% Triton X100, 50 μL 1.0 M Tris (pH 7.4), 50 μL 1.0 M DTT, and 40 μL 1.0 M MgCl2. The final reaction mixture was prepared by combining 1 part ^3H-TTP, 4 parts dH2O, 2.5 parts poly rA:oligo dT stock and 2.5 parts reaction buffer. Ten microliters of this reaction mixture were placed in a round bottom microtiter plate and 15 μL of virus containing supernatant is added and mixed. The plate was incubated at 37°C for 60 mins. Following incubation, the reaction volume was spotted onto DE81 filter-mats (Wallac), washed 5 times for 5 mins each in a 5% sodium phosphate buffer or 2X SSC (Life Technologies). Next they were washed 2 times for 1 min each in distilled water, 2 times for 1 min each in 70% ethanol, and then dried. Incorporated radioactivity (counts per min, CPM) was quantified using standard liquid scintillation techniques. These PBMC analysis was conducted by fee to service through Southern Research Institute (Frederick, MD, USA). The IC50 were analyzed using GraphPad Prism (Version 9) and presented as means ± S.D. of the triplicates.

[2] = system: Ral-resistant (8070_2) clinical isolate; assay: as above; assay type: cell-based, HIV-1
Experimental: as §1

[3] = system: Ral-resistant (1556_1) clinical isolate; assay: as above; assay type: cell-based, HIV-1
Experimental: as §1

[4] = system: Ral-resistant (8070_1) clinical isolate; assay: as above; assay type: cell-based, HIV-1; conditions: for TI (TC50 / IC50): human PBMCs, Ral-resistant (8070_1)
Experimental: as §1

[5] = system: Ral-resistant (4736_4) clinical isolate; assay: as above; assay type: cell-based, HIV-1
Experimental: as §1

HIV-1 NL4-3 = assay: In vitro anti-viral assay in MT4 cells; assay type: cell-based
human PBMCs = assay: Tissue culture cytotoxicity measurement in human PBMCs; assay type: cell-based; conditions: human PBMCs
From the text: Multiple chemical scaffolds such as quinoline (BI224436, Fig 1A), benzothiazole (GS-9822, Fig 1B) and pyridine (KF116, Fig 1C) were previously explored for the discovery of ALLINIs. Here, we employed the pyrrolopyridine-based scaffold to synthesize an ALLINI candidate compound, STP0404 (Fig 1D). STP0404 harbors the tert-butoxy moiety that is common to other ALLINIs (Fig 1). First, we measured its in vitro anti-HIV-1 efficacy and cytotoxicity using various HIV-1 strains in multiple cell types, with cytotoxicity initially tested up to 10 μM (Table 1). […] The calculated in vitro minimum therapeutic index (TI) of STP0404 under these conditions was accordingly >25,000. For comparison, we employed two FDA-approved HIV-1 inhibitors, AZT (RT inhibitor) and Raltegravir (Ral, INSTI), alongside 5 different Ral-resistant clinical isolates (Table 1).

HIV-1NL4-3 = assay: In vitro anti-viral assay in human PBMCs (RT activity readout); assay type: cell-based; conditions: for TI (TC50 / IC50): minimal TI from IC50 and 10 μM
Experimental: as §1

MT4 cells = assay: Tissue culture cytotoxicity measurement in MT4 cells; assay type: cell-based
From the text: Fig 1 ALLINI structures and STP0404 activities. […] Pyridine-based KF116, D. Pyrrolopyridine-based STP0404. The conserved chemical moiety containing tert-butoxy and carboxylic acid groups are marked by “]”.

HIV-1_89.6 = assay: In vitro anti-viral assay in CEMx174 cells (p24); assay type: cell-based; conditions: HIV-1 89.6 / CEMx174 cells; read-out: IC50
Experimental: (§2) CEMx174 cells were infected with HIV-1 primary isolate 89.6 (From infectious clone p89.6, NIH AIDS Reagent Program) at approximately at 10% of cell population determined by FACS analyses. To determine antiviral activity during virus production, STP0404 was added at concentration in the range of 0.1 nM—10 μM during media exchange at 4 hrs post-infection. DMSO was used as a negative control. Cell-free supernatants were measured for p24 antigen production, 5 days post-infection. The anti-HIV-1 efficacy of the two enantiomers of STP0404 were also determined by using the same protocol. All assays were conducted in triplicates. The IC50 values were computed using GraphPad Prism (Version 9) and presented as means ± S.D. of the triplicates. For SIVmac239, CEMx174 cells were infected with viral supernatant containing SIVmac293 at 50,000 TCID50/mL (kind gift from Dr. G. Silvestri, Emory Yerkes National Primate Research Center) with 100 μL/10^6 cells at varying concentrations of STP0404, BI224436, and Raltegravir, and the same above protocol was followed except for that p27 capsid antigen content was measured daily for 5 days post infection.

[6] = system: HIV-1_89.6 passage 14 viral population (Y99H and A128T); assay: Susceptibility of STP0404-selected viral population, passage 14, in CEMx174 cells; assay type: cell-based; conditions: passage 14 viral population (Y99H and A128T) vs wild type HIV-1_89.6
Experimental: CEM x174 cells infected with HIV primary isolate 89.6 were cultured in the presence of STP0404 at the concentration of IC90 determined earlier. At each passage, cells from original culture in the presence of inhibitor (0.75x10^6 cells) were mixed with equal amount of no-drug control cells to propagate, and viral replication was monitored by the production of p24 antigen in the supernatant. […] The population of drug-induced mutations at each passage mentioned above was determined by sequencing of at least 10 resulting transformants.
CEM x174 cells were infected with cell-free viral supernatant collected during virus resistance assays above. […] The viral stocks were normalized by the amount of p24 capsid antigen, determined to infect CEMx174 cells at approximately 10% of populations (10,000 pg / 10^6 cells). […] Cell-free supernatants were measured for p24 antigen production 5 days post-infection. p89.6 plasmid was applied for Quickchange kit (Invitrogen) to create Y99H single, A128T single, Y99H/A128T double mutants as well as two natural variants (A124N and T125A), and these 89.6 variant viruses were generated by transfecting 293T cells and culturing the produced viruses in CEMx174 cells. The IC50 of STP0404 against respective viruses were analyzed using GraphPad Prism (Version 9) and presented as means ± S.D. of triplicates. […]

SIVmac239 = assay: In vitro efficacy test against SIVmac239 in CEMx174 cells (p27); assay type: cell-based, SIV; conditions: p27 assay
Experimental: as §2, with “The IC50 values were computed using GraphPad Prism (Version 9) and presented as means ± S.D. of the triplicates.” left out
Supplementary file ppat.1009671.s004.tiff: S1 Fig In vitro efficacy tests of STP0404, BI224436 and Raltegravir against SIVmac239 in CEMx174 cell culture. CEMx174 cells were infected with SIVmac239 with various concentrations of STP0404, BI224436, and Raltegravir, and the viral production was determined by p27 assay at 5 days post infection. […]

[7] = column under Ral-resistant (1556_1)
[8] = column under Ral-resistant (4736_2)
[9] = column under Ral-resistant (4736_4)
[10] = column under Ral-resistant (8070_1)
[11] = column under Ral-resistant (8070_2)
[12] = Human immunodeficiency virus 1, PBMC

Row | Structure (SMILES) | TI (TC50 / IC50) [2] | TI (TC50 / IC50) [3] | TI (TC50 / IC50) [4] | TI (TC50 / IC50) (HIV-1 NL4-3; HIV-1 NL4-3 / MT4 cells) | TC50 (human PBMCs; NL4-3, tested up to 10 μM) | TC50 (human PBMCs; [7]) | TC50 (human PBMCs; [8]) | TC50 (human PBMCs; [9]) | TC50 (human PBMCs; [10]) | TC50 (human PBMCs; [11]) | TI (TC50 / IC50) (HIV-1NL4-3; human PBMCs, NL4-3) | TC50 (MT4 cells) | also measured
1 | Cc1cn([C@H]2C[C@H](N=[N+]=[N-])[C@@H](CO)O2)c(=O)[nH]c1=O [AZT] | >125 | >1,000 | >1,490 | > 179 | >10,000 nM | >10,000 nM | >10,000 nM | >10,000 nM | >10,000 nM | >10,000 nM | >1,121 | > 10,000 nM | TI (TC50 / IC50) ([1]; human PBMCs, Ral-resistant (4736_2)): >23,000; IC50 ([1]; human PBMCs, Ral-resistant (4736_2), read-out: IC50): 0.42 ± 0.37 nM; IC50 [2]: 79.9 ± 11.8 nM; IC50 [3]: 9.33 ± 0.22 nM; IC50 ([5]; human PBMCs, Ral-resistant (4736_4), read-out: IC50): 6.71 ± 5.74 nM; IC50 (HIV-1 NL4-3; HIV-1 NL4-3 / MT4 cells, read-out: IC50): 56 ± 23.5 nM; IC50 (HIV-1NL4-3; human PBMCs, NL4-3, mean of triplicates ± SD, read-out: IC50): 8.92 ± 2.08 nM
2 | Cc1nc2c(c(C)c(C)n2Cc2cnn(C)c2)c(-c2ccc(Cl)cc2)c1[C@H](OC(C)(C)C)C(=O)O [(S) form] | – | – | – | – | – | – | – | – | – | – | – | – | IC50 (HIV-1_89.6): 1.3 nM
3 | Cc1nc2ccccc2c(-c2ccc3c4c(ccnc24)CCO3)c1[C@H](OC(C)(C)C)C(=O)O [BI224436, reference compound] | – | – | – | – | – | – | – | – | – | – | – | – | IC50 fold increase [6]: 40.5 fold; inhibition of SIVmac239 (SIVmac239): failed to inhibit
4 | Cc1nnc(C(=O)NC(C)(C)c2nc(C(=O)NCc3ccc(F)cc3)c(O)c(=O)n2C)o1 [Raltegravir] | ~100 | ~20 | ~10 | > 2,710 | >10,000 nM | >10,000 nM | >10,000 nM | >10,000 nM | >10,000 nM | >10,000 nM | >22,700 | > 10,000 nM | IC50 [1, 12]: > 50 nM; IC50 [2, 12]: > 100 nM; IC50 [3, 12]: > 500 nM; IC50 [4, 12]: > 1000 nM; IC50 [5, 12]: 36.5 ± 53.6 nM; TI (TC50 / IC50) ([5]; human PBMCs, Ral-resistant (4736_4)): >270; IC50 (HIV-1 NL4-3; Human immunodeficiency virus 1, NL43, MT4): 3.69 ± 2.8 nM; IC50 (HIV-1NL4-3; Human immunodeficiency virus 1, NL43, PBMC): 0.44 ± 0.74 nM
